Results taken from ChEMBL document CHEMBL1201862, “PubChem BioAssay data set” (2004).
The source made the active and inactive calls. Cut-off read from the data, not from the text of the source, for most assays here: actives have a measured EC50 and inactives only a lower limit.

Columns and labels:
[1] = protection from phage-mediated lysis, alamar blue read-out – E. coli UTI89, K1F phage, bacterial capsule biogenesis inhibitors (AID 488966); assay type: functional
[2] = biological target: T1, CAAX prenyl protease 2 (Saccharomyces cerevisiae S288c, UniProt Q03530); assay type: biochemical
T1 sequence (Q03530 whole entry): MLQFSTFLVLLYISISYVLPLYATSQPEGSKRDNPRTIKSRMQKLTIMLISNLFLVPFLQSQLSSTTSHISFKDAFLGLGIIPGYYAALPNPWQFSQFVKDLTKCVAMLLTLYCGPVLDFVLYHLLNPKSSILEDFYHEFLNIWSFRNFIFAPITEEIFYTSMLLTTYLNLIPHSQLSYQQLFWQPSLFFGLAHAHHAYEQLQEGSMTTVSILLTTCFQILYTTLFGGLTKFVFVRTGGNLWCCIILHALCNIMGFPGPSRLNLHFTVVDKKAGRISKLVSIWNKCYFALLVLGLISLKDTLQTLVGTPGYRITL

[3] = luciferase reporter signal suppression in cells – H4 neuroglioma cells, luminescence, dose response (AID 1990); assay type: functional, cell-based
[4] = ADP-Glo luciferase signal interference – biochemical, luminescence, cherry-picked samples, set 2, artefact control for CDK5 inhibitor project, dose response (AID 504546); assay type: functional, cell-based
[5] = biological target: CAAX prenyl protease 2 (Homo sapiens, UniProt Q9Y256); assay: inhibition of Ras-converting CAAX protease Rce1 – biochemical, yeast membranes, quenched-peptide fluorescence, cherry-pick, dose response (AID 588849)
CAAX prenyl protease 2 (Homo sapiens, UniProt Q9Y256), sequence (Q9Y256 whole entry): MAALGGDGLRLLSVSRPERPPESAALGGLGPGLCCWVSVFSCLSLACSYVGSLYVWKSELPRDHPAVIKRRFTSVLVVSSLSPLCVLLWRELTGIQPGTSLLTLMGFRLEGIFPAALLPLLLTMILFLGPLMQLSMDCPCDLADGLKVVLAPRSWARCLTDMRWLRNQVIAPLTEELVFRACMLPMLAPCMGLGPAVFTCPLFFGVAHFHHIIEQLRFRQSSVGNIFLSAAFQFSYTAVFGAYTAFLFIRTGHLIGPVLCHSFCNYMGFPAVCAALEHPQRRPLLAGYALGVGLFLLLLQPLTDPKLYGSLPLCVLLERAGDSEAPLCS

[6] = system: BJ; assay: BJ-TERT fibroblast viability loss – cell-based, RAS-independent, luminescence, dose response (AID 1933); assay type: functional; conditions: Homo sapiens
[7] = biological target: Luciferin 4-monooxygenase (Photinus pyralis, UniProt P08659); assay: inhibition of purified Photinus pyralis luciferase – biochemical, luminescence, dose response (AID 1891)
Luciferin 4-monooxygenase, sequence (P08659 whole entry): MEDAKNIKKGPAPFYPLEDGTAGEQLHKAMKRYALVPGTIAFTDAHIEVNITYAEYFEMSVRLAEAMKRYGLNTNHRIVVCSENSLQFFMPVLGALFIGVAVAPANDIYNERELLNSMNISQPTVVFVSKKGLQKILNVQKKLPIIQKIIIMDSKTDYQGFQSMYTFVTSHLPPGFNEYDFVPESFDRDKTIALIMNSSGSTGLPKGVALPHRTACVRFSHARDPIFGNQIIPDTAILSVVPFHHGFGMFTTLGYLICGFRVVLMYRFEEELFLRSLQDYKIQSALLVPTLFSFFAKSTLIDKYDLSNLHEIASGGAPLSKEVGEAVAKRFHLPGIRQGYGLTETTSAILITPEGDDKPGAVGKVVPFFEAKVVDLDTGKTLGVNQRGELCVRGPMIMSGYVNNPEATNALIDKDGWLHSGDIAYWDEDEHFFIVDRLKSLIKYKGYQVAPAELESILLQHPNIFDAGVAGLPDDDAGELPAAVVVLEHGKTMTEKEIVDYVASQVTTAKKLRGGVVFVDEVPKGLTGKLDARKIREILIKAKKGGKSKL

[8] = biological target: Trypsin (Sus scrofa, UniProt P00761); assay: trypsin protease activity blockade – biochemical, quenched peptide fluorescence, cherry-pick, selectivity assay for Rce1 protease inhibitor project, dose response (AID 488789)
Trypsin, sequence (P00761 whole entry): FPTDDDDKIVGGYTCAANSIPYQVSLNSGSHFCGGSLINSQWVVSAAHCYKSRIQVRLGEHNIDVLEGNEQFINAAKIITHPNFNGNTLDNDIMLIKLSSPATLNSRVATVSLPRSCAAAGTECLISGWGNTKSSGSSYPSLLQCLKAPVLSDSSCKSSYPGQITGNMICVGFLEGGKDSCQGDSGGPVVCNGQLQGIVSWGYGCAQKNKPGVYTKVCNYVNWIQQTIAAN

[9] = system: BJ; assay: cells; assay type: functional, cell-based; conditions: Homo sapiens
[10] = DRD fibroblast viability loss – cell-based, non-viral oncogenic, luminescence, dose response (AID 1934); assay type: functional; conditions: Homo sapiens
[11] = biological target: Cyclin-dependent kinase 5/CDK5 activator 1 (Homo sapiens, UniProt Q00535); assay: blockade of human CDK5 activity – biochemical, cherry-picked samples, set 2, dose response (AID 504545)
Cyclin-dependent kinase 5/CDK5 activator 1, sequence (Q00535 whole entry): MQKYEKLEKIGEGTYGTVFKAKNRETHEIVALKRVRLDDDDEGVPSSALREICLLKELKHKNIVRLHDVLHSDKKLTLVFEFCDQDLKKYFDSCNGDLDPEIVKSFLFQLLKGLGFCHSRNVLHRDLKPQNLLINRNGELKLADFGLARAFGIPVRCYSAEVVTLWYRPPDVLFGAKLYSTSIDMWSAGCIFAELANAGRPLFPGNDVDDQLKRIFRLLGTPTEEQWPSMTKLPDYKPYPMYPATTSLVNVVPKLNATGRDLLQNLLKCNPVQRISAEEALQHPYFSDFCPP
Cyclin-dependent kinase 5/CDK5 activator 1, sequence (Q15078 whole entry, further chain): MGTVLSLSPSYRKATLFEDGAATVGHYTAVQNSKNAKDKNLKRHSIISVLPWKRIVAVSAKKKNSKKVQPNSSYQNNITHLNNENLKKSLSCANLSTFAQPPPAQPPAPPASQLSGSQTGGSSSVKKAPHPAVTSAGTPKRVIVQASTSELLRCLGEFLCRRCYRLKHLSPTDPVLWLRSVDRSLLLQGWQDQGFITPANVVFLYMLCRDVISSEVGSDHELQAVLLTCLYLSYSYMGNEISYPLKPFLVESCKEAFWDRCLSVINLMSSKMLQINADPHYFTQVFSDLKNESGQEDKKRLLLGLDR

[12] = Luminescence Cell-Based Dose Confirmation HTS to Identify Inhibitors of Platelet Dense Granule Release. [Related pubchem assays: 1663 (Primary HTS), 1678 (Summary of Project)]; assay type: functional
[13] = biological target: CAAX prenyl protease 1 (Saccharomyces cerevisiae S288c, UniProt P47154); assay: yeast CAAX protease Ste24 inhibition – biochemical, S. cerevisiae, plate reader, cherry-pick, dose response (AID 488815)
CAAX prenyl protease 1, sequence (P47154 whole entry): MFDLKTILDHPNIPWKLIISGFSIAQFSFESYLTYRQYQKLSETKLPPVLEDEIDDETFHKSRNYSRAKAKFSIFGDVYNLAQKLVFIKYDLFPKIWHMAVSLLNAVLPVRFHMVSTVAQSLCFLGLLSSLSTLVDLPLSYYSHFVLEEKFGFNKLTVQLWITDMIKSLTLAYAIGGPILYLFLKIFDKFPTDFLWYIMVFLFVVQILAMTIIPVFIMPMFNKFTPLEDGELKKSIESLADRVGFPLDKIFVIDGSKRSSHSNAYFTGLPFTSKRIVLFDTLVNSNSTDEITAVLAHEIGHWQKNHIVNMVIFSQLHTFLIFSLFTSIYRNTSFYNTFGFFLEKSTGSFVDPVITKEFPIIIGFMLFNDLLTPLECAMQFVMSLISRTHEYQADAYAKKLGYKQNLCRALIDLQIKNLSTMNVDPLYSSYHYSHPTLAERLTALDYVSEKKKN

[14] = alpha-synuclein stem-loop luciferase translation blockers – H4 neuroglioma cells, luminescence, confirmation (AID 1988); assay type: functional, cell-based
[15] = Luminescence Cell-Based Dose Response HTS to Identify Inhibitors of 5'UTR Stem-Loop Driven Prion Protein mRNA Translation in H4 Neuroglioblastoma Cells. [Related pubchem assays: 1827 (Project Summary), 1813 (Primary HTS)]; assay type: functional
[16] = system: BJ; assay: BJ-TERT-LT-ST fibroblast viability loss – cell-based, RAS-independent, luminescence, dose response (AID 1935); assay type: functional; conditions: Homo sapiens;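 note: BJ fibroblasts immortalized with TERT plus LT and ST oncogenes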
[17] = biological target: T2, Zinc finger protein mex-5 (Caenorhabditis elegans, UniProt Q9XUB2); assay: potency of MEX-5 RNA-binding blockers – biochemical, C. elegans, fluorescence polarization, dose response (AID 1960)
T2 sequence (Q9XUB2 whole entry): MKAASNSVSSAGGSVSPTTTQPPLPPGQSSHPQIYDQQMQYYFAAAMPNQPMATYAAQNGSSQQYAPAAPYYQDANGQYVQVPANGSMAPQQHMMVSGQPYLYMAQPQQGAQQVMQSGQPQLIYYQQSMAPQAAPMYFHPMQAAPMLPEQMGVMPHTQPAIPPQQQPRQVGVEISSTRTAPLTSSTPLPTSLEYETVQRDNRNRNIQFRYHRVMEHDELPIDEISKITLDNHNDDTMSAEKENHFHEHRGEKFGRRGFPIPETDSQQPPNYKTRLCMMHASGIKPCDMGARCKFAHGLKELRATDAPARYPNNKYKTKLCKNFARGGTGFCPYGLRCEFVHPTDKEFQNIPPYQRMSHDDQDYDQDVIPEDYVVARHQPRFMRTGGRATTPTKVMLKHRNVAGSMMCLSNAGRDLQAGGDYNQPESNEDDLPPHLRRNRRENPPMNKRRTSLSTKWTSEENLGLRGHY

[18] = biological target: Neurotensin receptor type 1 (Homo sapiens, UniProt P30989); assay type: functional;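 note: Image-based confirmatory dose-response assay measuring agonist activity at NTR1; NTR1-expressing U2OS osteosarcoma cells imaged for beta-arrestin GFP spot formation; agonist potency where compounds increase beta-arrestin recruitment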
Neurotensin receptor type 1, sequence (P30989 whole entry, the tested form may be a part): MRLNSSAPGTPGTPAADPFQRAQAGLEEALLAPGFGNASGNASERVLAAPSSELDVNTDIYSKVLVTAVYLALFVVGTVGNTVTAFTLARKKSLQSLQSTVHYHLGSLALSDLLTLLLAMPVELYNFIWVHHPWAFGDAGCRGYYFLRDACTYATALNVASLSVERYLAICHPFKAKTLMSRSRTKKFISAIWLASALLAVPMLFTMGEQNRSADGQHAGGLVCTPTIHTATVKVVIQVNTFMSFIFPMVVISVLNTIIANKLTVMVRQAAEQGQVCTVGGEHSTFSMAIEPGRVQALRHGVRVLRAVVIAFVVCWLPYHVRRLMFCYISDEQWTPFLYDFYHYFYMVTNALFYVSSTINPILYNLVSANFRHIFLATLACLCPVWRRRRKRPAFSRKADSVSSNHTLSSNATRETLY

[19] = biological target: T3, RNA-binding protein pos-1 (Caenorhabditis elegans, UniProt G5EF15); assay: disruptors of C. elegans POS-1 RNA interaction – biochemical, fluorescence polarization, dose response (AID 1964);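 note: purified POS-1 fused to maltose binding protein made in E. coli; potency of compounds blocking POS-1 binding to fluorescent RNA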
T3 sequence (G5EF15 whole entry): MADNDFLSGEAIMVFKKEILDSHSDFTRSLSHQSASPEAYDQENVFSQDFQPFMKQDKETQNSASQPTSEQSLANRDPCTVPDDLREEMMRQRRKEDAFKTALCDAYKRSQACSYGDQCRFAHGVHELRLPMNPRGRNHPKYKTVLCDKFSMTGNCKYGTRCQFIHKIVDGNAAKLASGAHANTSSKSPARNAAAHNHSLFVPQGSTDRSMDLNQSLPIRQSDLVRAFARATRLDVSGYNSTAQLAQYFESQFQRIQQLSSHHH

[20] = system: H4; assay: Luminescence Cell-Based Dose Response HTS to Identify Activators of 5'UTR Stem-Loop Driven Prion Protein mRNA Translation in H4 Neuroglioblastoma Cells. [Related pubchem assays: 1829 (Project Summary), 1814 (Primary HTS)]; assay type: functional; conditions: Homo sapiens
[21] = Luminescence Cell-Based Dose Response HTS to Identify Activators of Luciferase Translation or Activity in H4-C Neuroglioblastoma Cells. [Related pubchem assays: 1829 (Project Summary), 1814 (Primary HTS)]; assay type: functional
[22] = Luminescence Cell-Based Dose Response HTS to Identify Activators of Luciferase Translation or Activity in H4 […] Cells. [Related pubchem assays: 1829 (Project Summary), 1814 (Primary HTS)]; assay type: functional
[23] = Luminescence Cell-Based Dose Retest to Confirm Activators of 5'UTR Stem-Loop Driven Alpha-Synuclein mRNA Translation in H4 Neuroglioblastoma Cells. [Related pubchem assays (depositor defined):AID1813, AID1829]; assay type: functional
[24] = Luminescence Cell-Based Dose Response HTS to Identify Activators of 5'UTR Stem-Loop Driven Prion Protein mRNA Translation in H4-C Neuroglioblastoma Cells. [Related pubchem assays: 1829 (Project Summary), 1814 (Primary HTS)]; assay type: functional
[25] = biological target: T4, Heat shock factor protein 1 (Mus musculus, UniProt P38532); assay: enhancement of HSF1-driven luciferase signal – cell-based, NIH3T3, luminescence, dose retest, confirmation (AID 435004); assay type: functional;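 note: stress induced by proteasome inhibitor MG132 added 30 min after compound; luciferase reporter driven by HSF1 response element in NIH3T3 cells; actives raise luminescence as potentiators of the MG132 stress response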
T4 sequence (P38532 whole entry): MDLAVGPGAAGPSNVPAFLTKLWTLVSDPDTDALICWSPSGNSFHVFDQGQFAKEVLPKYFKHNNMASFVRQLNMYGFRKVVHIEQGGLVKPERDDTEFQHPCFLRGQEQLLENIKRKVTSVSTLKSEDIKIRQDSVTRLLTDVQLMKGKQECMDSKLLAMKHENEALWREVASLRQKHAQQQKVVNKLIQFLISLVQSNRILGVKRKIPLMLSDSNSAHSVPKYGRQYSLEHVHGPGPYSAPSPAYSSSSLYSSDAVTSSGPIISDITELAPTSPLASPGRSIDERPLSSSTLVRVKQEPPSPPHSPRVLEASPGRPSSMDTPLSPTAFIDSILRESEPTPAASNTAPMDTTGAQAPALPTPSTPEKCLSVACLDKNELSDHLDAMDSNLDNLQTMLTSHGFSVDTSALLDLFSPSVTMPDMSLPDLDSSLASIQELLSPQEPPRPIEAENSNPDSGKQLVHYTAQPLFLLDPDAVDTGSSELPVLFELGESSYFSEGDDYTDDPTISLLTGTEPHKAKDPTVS

[26] = Luminescence Cell-Based Dose Confirmation HTS to Identify Activators of 5'UTR Stem-Loop Driven Alpha-Synuclein mRNA Translation in H4 Neuroglioblastoma Cells. [Related pubchem assays: 1829 (Project Summary), 1814 (Primary HTS)]; assay type: functional
[27] = biological target: Scavenger receptor class B member 1 (Mus musculus, UniProt Q61009); assay: mouse SR-BI DiI-HDL uptake blockers – ldlA[mSR-BI] cells, fluorescence, cherry pick, dose response (AID 493194); assay type: functional, cell-based;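 note: cellular uptake of fluorescent DiI-labeled HDL measured as cell fluorescence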
Scavenger receptor class B member 1, sequence (Q61009 whole entry): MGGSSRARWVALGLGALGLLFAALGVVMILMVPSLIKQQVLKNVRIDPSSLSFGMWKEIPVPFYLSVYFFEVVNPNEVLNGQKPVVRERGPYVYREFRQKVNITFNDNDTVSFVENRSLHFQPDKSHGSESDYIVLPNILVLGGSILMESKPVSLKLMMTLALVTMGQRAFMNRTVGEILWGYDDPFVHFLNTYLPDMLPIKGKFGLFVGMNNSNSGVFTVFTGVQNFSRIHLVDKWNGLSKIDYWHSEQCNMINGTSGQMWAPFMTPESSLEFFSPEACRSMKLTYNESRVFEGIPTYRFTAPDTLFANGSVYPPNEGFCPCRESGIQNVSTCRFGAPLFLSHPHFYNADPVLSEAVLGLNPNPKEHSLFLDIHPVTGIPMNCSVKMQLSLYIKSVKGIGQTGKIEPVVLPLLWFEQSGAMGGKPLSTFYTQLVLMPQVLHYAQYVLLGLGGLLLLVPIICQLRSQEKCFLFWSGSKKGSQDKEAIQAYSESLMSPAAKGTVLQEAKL

[28] = biological target: Metabotropic glutamate receptor 4 (Homo sapiens, UniProt Q14833); assay: Modulation of the Metabotropic Glutamate Receptor mGluR4: Potency at human mGluR4. Modulation of intracellular Ca2+ using Fluo-4, AM, in CHO expressing recombinant receptor [Related pubchem assays (depositor defined):AID2437, AID2807]; assay type: functional, cell-based
Metabotropic glutamate receptor 4 (Homo sapiens, UniProt Q14833), sequence (Q14833 whole entry): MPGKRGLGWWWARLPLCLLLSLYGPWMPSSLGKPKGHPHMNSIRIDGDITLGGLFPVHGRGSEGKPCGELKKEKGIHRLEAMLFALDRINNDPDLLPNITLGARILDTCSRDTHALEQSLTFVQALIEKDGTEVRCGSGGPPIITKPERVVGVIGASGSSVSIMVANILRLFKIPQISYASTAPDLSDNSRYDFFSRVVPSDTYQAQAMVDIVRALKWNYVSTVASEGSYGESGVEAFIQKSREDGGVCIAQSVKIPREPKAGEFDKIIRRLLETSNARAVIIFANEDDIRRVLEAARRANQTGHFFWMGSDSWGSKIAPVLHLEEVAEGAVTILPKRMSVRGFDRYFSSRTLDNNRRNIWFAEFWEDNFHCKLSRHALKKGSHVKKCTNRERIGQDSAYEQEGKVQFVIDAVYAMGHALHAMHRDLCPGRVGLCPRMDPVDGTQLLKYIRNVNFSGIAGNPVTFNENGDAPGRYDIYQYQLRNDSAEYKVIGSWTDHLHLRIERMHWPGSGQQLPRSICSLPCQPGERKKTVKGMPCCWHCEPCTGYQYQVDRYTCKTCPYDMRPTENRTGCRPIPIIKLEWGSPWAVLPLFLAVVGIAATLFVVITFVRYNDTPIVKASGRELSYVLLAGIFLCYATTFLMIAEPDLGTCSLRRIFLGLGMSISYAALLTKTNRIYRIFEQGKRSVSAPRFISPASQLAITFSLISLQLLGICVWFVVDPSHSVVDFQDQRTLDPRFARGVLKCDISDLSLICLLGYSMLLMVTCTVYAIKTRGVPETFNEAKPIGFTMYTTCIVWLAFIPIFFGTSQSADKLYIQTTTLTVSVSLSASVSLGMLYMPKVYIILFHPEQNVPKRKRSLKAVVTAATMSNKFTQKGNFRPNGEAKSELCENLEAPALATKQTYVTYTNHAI

[29] = biological target: Metabotropic glutamate receptor 4 (Rattus norvegicus, UniProt P31423); assay: Modulation of the Metabotropic Glutamate Receptor mGluR4: Rat PAM Potency. [Related pubchem assays (depositor defined):AID2437, AID2807]; assay type: functional
Metabotropic glutamate receptor 4 (Rattus norvegicus, UniProt P31423), sequence (P31423 whole entry): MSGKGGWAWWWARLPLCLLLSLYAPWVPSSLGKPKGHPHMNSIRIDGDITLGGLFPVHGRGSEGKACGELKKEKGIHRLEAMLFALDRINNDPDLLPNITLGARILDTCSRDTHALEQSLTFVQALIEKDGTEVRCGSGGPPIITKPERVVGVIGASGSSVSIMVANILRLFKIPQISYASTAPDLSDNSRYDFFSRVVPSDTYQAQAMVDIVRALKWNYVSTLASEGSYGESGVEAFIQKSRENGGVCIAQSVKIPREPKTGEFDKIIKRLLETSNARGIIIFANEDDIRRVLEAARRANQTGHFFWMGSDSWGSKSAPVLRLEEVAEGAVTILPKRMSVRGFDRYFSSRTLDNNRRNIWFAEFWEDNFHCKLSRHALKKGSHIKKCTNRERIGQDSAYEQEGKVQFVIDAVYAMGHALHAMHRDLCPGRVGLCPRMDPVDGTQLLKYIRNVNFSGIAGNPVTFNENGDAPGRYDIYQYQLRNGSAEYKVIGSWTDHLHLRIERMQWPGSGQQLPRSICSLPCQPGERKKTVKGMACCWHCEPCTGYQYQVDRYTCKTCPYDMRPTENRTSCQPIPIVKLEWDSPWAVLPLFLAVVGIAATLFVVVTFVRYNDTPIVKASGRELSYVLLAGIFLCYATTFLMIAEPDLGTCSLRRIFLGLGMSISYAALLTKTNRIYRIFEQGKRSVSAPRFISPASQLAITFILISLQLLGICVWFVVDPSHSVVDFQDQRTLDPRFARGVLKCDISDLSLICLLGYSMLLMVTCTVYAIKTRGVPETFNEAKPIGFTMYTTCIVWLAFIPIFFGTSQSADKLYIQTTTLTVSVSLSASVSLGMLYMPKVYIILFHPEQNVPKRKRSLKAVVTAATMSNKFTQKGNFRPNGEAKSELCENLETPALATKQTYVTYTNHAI

With `O=C(Nc1nnc(/C=C/c2ccccc2)s1)c1ccco1` as the compound, how does the IC50 [1] read?
The IC50 was > 75 µM (active).

What does the source list for `Cc1ccc2nc(-c3ccccc3)cn2c1`?
AC50 [2]: > 100 µM (inactive); EC50 [3]: 1.32 µM (active); AC50 [4]: 59.3 µM (active); AC50 [5]: > 100 µM (inactive); EC50 [6]: 9.54 µM (active); EC50 [7]: 1.58 µM (active); AC50 [8]: 59.9 µM (active); EC50 [9]: 9.05 µM (active); EC50 [10]: 7.45 µM (active); AC50 [11]: 18.6 µM (active); EC50 [12]: 2.18 µM (active); AC50 [13]: 7.44 µM (active); EC50 [14]: 0.717 µM (active); EC50 [15]: 8.72 µM (active); EC50 [16]: > 150 µM (inconclusive)

For `O=C1NC(=O)C(=Cc2cn(CCOc3ccc4c(c3)OCO4)c3ccccc23)C(=O)N1`, which EC50 [17] is on record?
Its EC50 is 11.9 µM (active).

And the EC50 [18]?
The EC50 was 4.12 µM (active).

What about the EC50 [19] of the same compound?
Its EC50 is 16.7 µM (active).

Which results are given for `Cc1cccc(NCc2nc3ccccc3n2C)c1`?
EC50 [20]: 8.1 µM (active); EC50 [21]: 1.63 µM (active); EC50 [22]: > 120 µM (not active); EC50 [23]: 0.752 µM (active); EC50 [24]: 3.39 µM (active); EC50 [25]: 201 µM (active); EC50 [26]: 0.296 µM (active)

With `CCc1sc(N2C(=O)C3C4CCC(C4=C(C)C)C3C2=O)nc1-c1ccccc1` (centres undefined) as the compound, how does the AC50 [27] read?
Its AC50 is 0.635 µM (active).

For `O=C(Nc1ccc(N2C(=O)[C@@H]3[C@H](C2=O)[C@@H]2CC[C@H]3O2)c(Cl)c1)c1ccccn1`, which EC50 [28] is on record?
Its EC50 is 1.44 µM (active).

And the EC50 [29]?
The EC50 was 2.29 µM (active).
